Laboratory results published in patent US20060069084A1, “Methods of inhibiting kinases” (priority 2001, published 2006).

Assays:
T-cell activation = T-cell activation cellular assay (MTT); format: cell-based; conditions: Table 4, 40 hr incubation
Description: (§1) Cellular assays were performed as follows:
(§2) Cell suspensions were prepared by harvesting cells from culture. Cell used in this test should be in later log phase growth and high viability. Cells were diluted in correct growth medium to 1.1× final concentration (from 50000 cell/ml to 200,000 cell/ml, depending on cell line). 90 μL was added to samples, diluted in PBS to 10× final concentration in flat-bottom 96-well plates (10 μL). After incubation for 40 hr in 37° C. 5% CO2 incubator, MTT 5 mg/ml (in PBS, filter sterile) 20 μl per well was added. The plates were returned to incubator for another 6 hours. Lysis Buffer (10% SDS, 0.01N HCl) 100 μl per well was added and the plate put back in incubator overnight. The plate was then read at 590 nm.

Jurkat = Jurkat cellular growth assay (MTT); format: cell-based; conditions: Table 4, inhibit 50% of cellular growth, 40 hr incubation
Description: as §1, §2

TSU = TSU cellular growth assay (MTT); format: cell-based; conditions: Table 4, inhibit 50% of cellular growth, 40 hr incubation
Description: as §1, §2

JAK3 = molecular target: T1, JAK3 (Homo sapiens, UniProt P52333); assay: JAK3 kinase domain capture-based ELISA kinase assay; format: biochemical; conditions: inhibit 50% of activity at 50 μM
T1 construct: The kinase domain of humanJAK3 was amplified from U937mRNA; His tag (from pFastBac HTb vector; nickel chelate purification) (N); made in house; host or cells: baculovirus; virus made in Sf9, large-scale expression in High Five insect cells
Outline: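 The human JAK3 kinase domain was His-tagged, baculovirus-expressed in High Five cells and nickel-affinity purified. Tyrosine phosphorylation was quantified on avidin-coated ELISA plates with peroxidase-linked anti-phosphotyrosine antibody PY20.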

JAK2 = molecular target: T2, JAK2 (Homo sapiens, UniProt O60674); assay: JAK2 kinase domain capture-based ELISA kinase assay; format: biochemical; conditions: inhibit 50% of activity at 50 μM
T2 construct: The kinase domain of humanJAK2 was amplified from U937mRNA; His tag (from pFastBac HTc vector; nickel chelate purification) (N); made in house; host or cells: baculovirus; virus made in Sf9, large-scale expression in High Five insect cells
Outline: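 His-tagged human JAK2 kinase domain was baculovirus-expressed in High Five insect cells and nickel-purified. Phosphotyrosine was captured on avidin plates and detected by ELISA with peroxidase-linked PY20.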

TYK2 = molecular target: T3, TYK2 (Homo sapiens, UniProt P29597); assay: TYK2 kinase domain capture-based ELISA kinase assay; format: biochemical; conditions: inhibit 50% of activity at 50 μM
T3 construct: The kinase domain of humanTYK2 was amplified from A549 mRNA; His tag (from pBlueBacHis2A vector; nickel chelate purification) (N); made in house; host or cells: baculovirus; virus made in Sf9, large-scale expression in High Five insect cells
T3 sequence (P29597 897-1176 limits assumed): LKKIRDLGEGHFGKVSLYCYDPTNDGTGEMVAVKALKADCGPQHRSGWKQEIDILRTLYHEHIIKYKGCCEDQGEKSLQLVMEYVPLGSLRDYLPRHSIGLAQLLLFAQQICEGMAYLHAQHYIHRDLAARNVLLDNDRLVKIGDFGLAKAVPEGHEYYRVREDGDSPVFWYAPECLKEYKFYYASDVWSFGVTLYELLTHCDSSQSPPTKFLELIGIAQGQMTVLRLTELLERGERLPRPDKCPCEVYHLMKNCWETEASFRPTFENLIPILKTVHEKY
Outline: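 His-tagged human TYK2 kinase domain expressed in baculovirus-infected insect cells and Ni-affinity purified. Biotinylated peptide substrate (5 μM final); phosphotyrosine captured on avidin plate and detected by peroxidase-linked PY20 antibody ELISA.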

JAK1 = molecular target: T4, JAK1 (Homo sapiens, UniProt P23458); assay: JAK1 kinase domain capture-based ELISA kinase assay; format: biochemical; conditions: inhibit 50% of activity at 50 μM
T4 construct: The kinase domain of humanJAK1 was amplified from U937mRNA; His tag (from pFastBac HTb vector; nickel chelate purification) (N); made in house; host or cells: baculovirus; virus made in Sf9, large-scale expression in High Five insect cells
Outline: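 His-tagged human JAK1 kinase domain was expressed via baculovirus in High Five insect cells and purified on nickel chelate resin. Phosphotyrosine was quantified by ELISA with peroxidase-linked PY20 after capture on avidin plates.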

T2 sequence (O60674 849-1124 limits assumed): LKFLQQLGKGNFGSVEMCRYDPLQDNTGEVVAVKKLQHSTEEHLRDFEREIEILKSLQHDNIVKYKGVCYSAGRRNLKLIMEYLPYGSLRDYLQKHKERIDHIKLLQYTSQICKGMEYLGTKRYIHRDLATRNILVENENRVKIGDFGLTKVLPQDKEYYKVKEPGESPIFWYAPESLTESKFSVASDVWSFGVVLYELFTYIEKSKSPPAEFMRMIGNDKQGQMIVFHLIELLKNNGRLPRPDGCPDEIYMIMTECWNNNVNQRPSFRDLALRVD
T4 sequence (P23458 875-1153 limits assumed): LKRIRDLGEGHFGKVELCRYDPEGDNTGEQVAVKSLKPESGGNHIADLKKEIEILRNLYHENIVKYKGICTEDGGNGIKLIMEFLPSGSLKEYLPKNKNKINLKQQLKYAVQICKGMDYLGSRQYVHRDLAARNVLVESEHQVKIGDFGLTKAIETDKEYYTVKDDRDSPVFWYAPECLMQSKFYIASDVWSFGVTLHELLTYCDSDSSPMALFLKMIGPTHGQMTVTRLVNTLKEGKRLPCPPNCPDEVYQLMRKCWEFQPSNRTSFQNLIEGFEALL
T1 sequence (P52333 822-1111 limits assumed): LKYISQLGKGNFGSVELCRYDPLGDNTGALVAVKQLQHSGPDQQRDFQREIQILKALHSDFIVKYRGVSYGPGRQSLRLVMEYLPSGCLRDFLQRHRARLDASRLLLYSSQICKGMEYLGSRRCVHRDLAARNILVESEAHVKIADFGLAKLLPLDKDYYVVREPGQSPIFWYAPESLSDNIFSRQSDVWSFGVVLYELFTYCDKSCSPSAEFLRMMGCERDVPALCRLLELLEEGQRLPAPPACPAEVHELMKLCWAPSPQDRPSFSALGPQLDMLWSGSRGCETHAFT

SMILES	IC50 (Jurkat; Homo sapiens, Jurkat, 40 h)	IC50 (JAK3; Table 6)	IC50 (JAK2; Table 6)	IC50 (TYK2; Table 6)	IC50 (JAK1; Table 6)	IC50 (T-cell activation; T-cell, 40 h)	IC50 (TSU)	further results
COc1cncc(-c2cncc(NCc3ccc(F)cc3)n2)c1 [drawing 53]	50 µM					30 µM	50 µM	
COc1cncc(-c2cncc(N[C@@H](C)c3ccccc3)n2)c1 [drawing 54]	50 µM					15 µM	20 µM	
COc1cc(-c2cncc(N[C@@H](C)c3ccccc3)n2)cc(OC)c1OC [drawing 55]							10 µM	IC50 (T-cell activation): 10 µM; IC50 (Jurkat): 20 µM
COc1cc(-c2cncc(NCc3ccccc3)n2)cc(OC)c1OC [drawing 56]	20 µM					15 µM	10 µM	
COc1cc(-c2cncc(N[C@@H](C)c3ccccc3)n2)cc(OC)c1OC [drawing 57]	35 µM					12 µM	10 µM	
C[C@H](Nc1cncc(-c2cccc(CO)c2)n1)c1ccccc1 [drawing 58]	20 µM					20 µM	15 µM	
COc1cncc(-c2cncc(NCC(C)(C)CO)n2)c1 [drawing 59]	40 µM					15 µM	40 µM	
CC(=O)Nc1cccc(-c2cncc(NCc3cccc(Cl)c3)n2)c1 [drawing 60]	40 µM					30 µM	5 µM	
Oc1ccc(-c2cn3ccnc3c(N3CCOCC3)n2)cc1 [drawing 75]								IC50 (JAK3; Table 5): < 50 µM; IC50 (JAK2; Table 5): < 50 µM; IC50 (TYK2; Table 5): < 50 µM; IC50 (JAK1; Table 5): < 50 µM
Brc1cn2ccnc2c(Nc2ccc(N3CCOCC3)cc2)n1 [drawing 82]								IC50 (JAK3; Table 5): < 50 µM; IC50 (JAK2; Table 5): < 50 µM; IC50 (TYK2; Table 5): < 50 µM; IC50 (JAK1; Table 5): < 50 µM
CCN(CCO)c1ccc(Nc2nc(Br)cn3ccnc23)cc1 [drawing 83]								IC50 (JAK3; Table 5): < 50 µM; IC50 (JAK2; Table 5): < 50 µM; IC50 (TYK2; Table 5): < 50 µM; IC50 (JAK1; Table 5): < 50 µM
COCCNc1nc(-c2ccccc2)cn2ccnc12 [drawing 85]								IC50 (JAK3; Table 5): < 50 µM; IC50 (JAK2; Table 5): < 50 µM; IC50 (TYK2; Table 5): < 50 µM; IC50 (JAK1; Table 5): < 50 µM
Oc1ccc(-c2cn3ccnc3c(N3CCOCC3)n2)cc1 [drawing 90]		> 50 µM	< 50 µM	> 50 µM	> 50 µM			
Brc1cn2ccnc2c(Nc2ccc(N3CCOCC3)cc2)n1 [drawing 100]		> 50 µM	< 50 µM	< 50 µM	< 50 µM			
c1cc(-c2cn3ccnc3c(Nc3ccc(N4CCOCC4)cc3)n2)ccn1 [drawing 120]		> 50 µM	< 50 µM	< 50 µM	< 50 µM			

The next lines start with results.

IC50 (Jurkat; Homo sapiens, Jurkat, 40 h)	IC50 (JAK3; Table 6)	IC50 (JAK2; Table 6)	IC50 (TYK2; Table 6)	IC50 (JAK1; Table 6)	SMILES	IC50 (T-cell activation; T-cell, 40 h)	IC50 (TSU)	further results
	> 50 µM	< 50 µM	< 50 µM	< 50 µM	Nc1cccc(-c2cn3ccnc3c(Nc3ccccc3)n2)c1 [drawing 87]			
	> 50 µM	< 50 µM	> 50 µM	< 50 µM	COCCNc1nc(-c2ccccc2)cn2ccnc12 [drawing 93]			
	> 50 µM	< 50 µM	> 50 µM	< 50 µM	CCN(CCO)c1ccc(Nc2nc(-c3cccc4ccccc34)cn3ccnc23)cc1 [drawing 94]			
	> 50 µM	< 50 µM	< 50 µM	< 50 µM	CCN(CCO)c1ccc(Nc2nc(-c3ccccc3CO)cn3ccnc23)cc1 [drawing 96]			
	> 50 µM	< 50 µM	< 50 µM	< 50 µM	CCN(CCO)c1ccc(Nc2nc(Br)cn3ccnc23)cc1 [drawing 101]			
	> 50 µM	< 50 µM	< 50 µM	< 50 µM	c1cncc(-c2cn3ccnc3c(Nc3ccc(N4CCOCC4)cc3)n2)c1 [drawing 131]			
	> 50 µM	< 50 µM	> 50 µM	< 50 µM	OCc1ccccc1-c1cn2ccnc2c(Nc2ccc(N3CCOCC3)cc2)n1 [drawing 142]			
